From the supplement of paper PMC10132981, “Formate overflow drives toxic folate trapping in MTHFD1 inhibited cancer cells” (Nature Metabolism, 2023)

Tests used:
Test in all cases: EC50 for viability (resazurin, 96 h)
SW620 MTHFD2-/- = conditions: RPMI+GlutaMAX (5% dFBS, 1% P/S)
SW620 WT = tested on: SW620 WT
PA-TU-8988T = conditions: DMEM+GlutaMAX (5% dFBS, 1% P/S)
SW620 MTHFD2 -/- = conditions: RPMI+GlutaMAX (5% dFBS, 1% P/S)
HCT116 = conditions: RPMI+GlutaMAX (10% FBS, 1% P/S)
SW620 = tested on: SW620

Nc1nc(N)c(NC(=O)Nc2cnc(C(=O)N[C@@H](CCc3nnn[nH]3)C(=O)O)c(F)c2)c(=O)[nH]1
Conditions	EC50 for viability [nM]
HCT116, metabolite supplement: Hypoxanthine	6.57
HCT116, metabolite supplement: Vehicle	13.1
PA-TU-8988T, metabolite supplement: Thymidine	1.6
PA-TU-8988T, metabolite supplement: Vehicle	1.31
SW620 MTHFD2 -/-, metabolite supplement: Hypoxanthine	1.53
SW620 MTHFD2 -/-, metabolite supplement: Sodium Formate	12.5
SW620 MTHFD2 -/-, metabolite supplement: Thymidine	0.604
SW620 MTHFD2 -/-, metabolite supplement: Thymidine + Sodium Formate	129
SW620 MTHFD2 -/-, metabolite supplement: Vehicle	0.506
SW620 MTHFD2-/-, metabolite supplement: Hypoxanthine + Formate	15.8
SW620 MTHFD2-/-, metabolite supplement: Vehicle	0.501

Conditions	EC50 for viability [nM]
SW620 WT, RPMI+GlutaMAX (5% dFBS, 1% P/S), metabolite supplement: Adenine	15.3
SW620 WT, RPMI+GlutaMAX (5% dFBS, 1% P/S), metabolite supplement: Adenosine	16.6
SW620 WT, RPMI+GlutaMAX (5% dFBS, 1% P/S), metabolite supplement: Guanosine	19.9
SW620 WT, RPMI+GlutaMAX (5% dFBS, 1% P/S), metabolite supplement: Hypoxanthine	14.1
SW620 WT, RPMI+GlutaMAX (5% dFBS, 1% P/S), metabolite supplement: Hypoxanthine + AICAr 10 µM	12.3
SW620 WT, RPMI+GlutaMAX (5% dFBS, 1% P/S), metabolite supplement: Hypoxanthine + AICAr 30 µM	16.4
SW620 WT, RPMI+GlutaMAX (5% dFBS, 1% P/S), metabolite supplement: Hypoxanthine + AICAr 50 µM	20
SW620 WT, RPMI+GlutaMAX (5% dFBS, 1% P/S), metabolite supplement: Hypoxanthine + AICAr 100 µM	> 10000
SW620 WT, RPMI+GlutaMAX (5% dFBS, 1% P/S, 10 uM Hypoxanthine), metabolite supplement: Thymidine 0.1 uM	16.5
SW620 WT, RPMI+GlutaMAX (5% dFBS, 1% P/S, 10 uM Hypoxanthine), metabolite supplement: Thymidine 0.5 uM	24.3
SW620 WT, RPMI+GlutaMAX (5% dFBS, 1% P/S, 10 uM Hypoxanthine), metabolite supplement: Thymidine 1uM	13.7
SW620 WT, RPMI+GlutaMAX (5% dFBS, 1% P/S, 10 uM Hypoxanthine), metabolite supplement: Thymidine 5uM	> 10000
SW620 WT, RPMI+GlutaMAX (5% dFBS, 1% P/S, 10 uM Hypoxanthine), metabolite supplement: Thymidine 10 uM	> 10000
SW620 WT, RPMI+GlutaMAX (5% dFBS, 1% P/S, 10 uM Hypoxanthine), metabolite supplement: Thymidine 25 uM	> 10000
SW620 WT, RPMI+GlutaMAX (5% dFBS, 1% P/S, 10 uM Hypoxanthine), metabolite supplement: Thymidine 50 uM	> 10000
SW620 WT, RPMI+GlutaMAX (5% dFBS, 1% P/S, 10 uM Hypoxanthine), metabolite supplement: Vehicle	13.6
SW620 WT, RPMI+GlutaMAX (5% dFBS, 1% P/S, 50 uM Hypoxanthine), metabolite supplement: Thymidine 0.1 uM	17.5
SW620 WT, RPMI+GlutaMAX (5% dFBS, 1% P/S, 50 uM Hypoxanthine), metabolite supplement: Thymidine 0.5 uM	14.5
SW620 WT, RPMI+GlutaMAX (5% dFBS, 1% P/S, 50 uM Hypoxanthine), metabolite supplement: Thymidine 1uM	12.5
SW620 WT, RPMI+GlutaMAX (5% dFBS, 1% P/S, 50 uM Hypoxanthine), metabolite supplement: Thymidine 5uM	> 10000
SW620 WT, RPMI+GlutaMAX (5% dFBS, 1% P/S, 50 uM Hypoxanthine), metabolite supplement: Thymidine 10 uM	> 10000
SW620 WT, RPMI+GlutaMAX (5% dFBS, 1% P/S, 50 uM Hypoxanthine), metabolite supplement: Thymidine 25 uM	> 10000
SW620 WT, RPMI+GlutaMAX (5% dFBS, 1% P/S, 50 uM Hypoxanthine), metabolite supplement: Thymidine 50 uM	> 10000
SW620 WT, RPMI+GlutaMAX (5% dFBS, 1% P/S, 50 uM Hypoxanthine), metabolite supplement: Vehicle	13
SW620, HPLM (5% dFBS, 1% P/S), metabolite supplement: Vehicle	12.7
SW620, RPMI+GlutaMAX (5% FBS, 1% P/S), metabolite supplement: Vehicle	13.4
SW620, RPMI+GlutaMAX (5% dFBS, 1% P/S), metabolite supplement: 50 µM Hypoxanthine	14
SW620, RPMI+GlutaMAX (5% dFBS, 1% P/S), metabolite supplement: Vehicle	14.7
SW620, RPMI+GlutaMAX (10% FBS, 1% P/S), metabolite supplement: Folic acid	597
SW620, RPMI+GlutaMAX (10% FBS, 1% P/S), metabolite supplement: Folinic acid	687
SW620, RPMI+GlutaMAX (10% FBS, 1% P/S), metabolite supplement: Hypoxanthine	10.4
SW620, RPMI+GlutaMAX (10% FBS, 1% P/S), metabolite supplement: Sodium Formate	12.7
SW620, RPMI+GlutaMAX (10% FBS, 1% P/S), metabolite supplement: Thymidine	> 10000
SW620, RPMI+GlutaMAX (10% FBS, 1% P/S), metabolite supplement: Thymidine + Folic acid	1920
SW620, RPMI+GlutaMAX (10% FBS, 1% P/S), metabolite supplement: Vehicle	9.47
